Test results: patent publication US20210130411A1, “CYCLIC HEXAPEPTIDES COMPOUNDS WITH ANTI-MALARIAL ACTIVITY” (priority 2018, published 2021)
Where two headings read alike, the source gives them in different places. Where a SMILES comes first, the peptide text is derived from it. [ ]: non-standard residue; d: D form. The star is where a group is joined. Trt = c1ccc(C(c2ccccc2)(c2ccccc2)*)cc1; Sar = CNCC(=O)O; tBu = CC(C)(C)*

What was measured:
[1] = tested on: Plasmodium falciparum 3D7 (chloroquine-sensitive strain); experiment: microbe, parasite or virus in culture; assay type: cell-based
Experimental: For the in vitro study of the antimalarial activity against P. falciparum D7, two stock solutions were prepared: solution A (dilution of powder sample) at 20 mM and solution B at 1 mM (made by dilution of solution A). Next, the compounds were diluted 100-fold (drug solution=10 μM), then, suitable volume of drug solution was transferred in the SYBR GREEN assay plate (final concentration=10-0.15 μM). However, due to the high potency of the samples, the initial concentration was reduced in order to determine the EC50 values. The assay condition included: hematocrit at 2%, initial parasitemia 0.5% and artesunate and pyrimethamine were used as positive control. The fluorescence of each well is measured. The EC50 value of each compound was assessed in at least two independent experiments.
(§1) were tested in vitro against the intraerythrocytic form of the parasite Plasmodium falciparum K1 (chloroquine-resistant strain) and Plasmodium falciparum 31D7 (chloroquine-sensitive strain). The selectivity index (SI) was determined as the ration between EC50 against murine macrophages or HepG2 cells and the EC50 against P. falciparum. In the following Table 1 is shown the results of the EC50 obtained for each of the tested compounds against P. falciparum K1 (P. f. K1) and P. falciparum 3D7 (P. f. 3D7) and the SI calculated.

[2] = tested on: murine macrophages or HepG2 cells; experiment: Selectivity index: EC50 against murine macrophages or HepG2 cells over EC50 against P. falciparum; assay type: cell-based; conditions: ratio of EC50 against murine macrophages or HepG2 cells to EC50 against P. falciparum
Experimental: as §1

[3] = tested on: P. falciparum K1 (chloroquine-resistant strain); experiment: microbe, parasite or virus in culture
Experimental: For the in vitro study of the antimalarial activity against P. falciparum K1, this strain originating from Thailand that is resistant to chloroquine and pyrimethamine but sensitive to mefloquine was used. The cultures are naturally asynchronous (65-75% ring stage) and are maintained in continuous log phase growth in RPM11640 medium supplemented with 5% washed human A+erythrocytes, 25 mM HEPES, […] NaHCO3, and AlbuMAXII (lipid-rich bovine serum albumin) (GIBCO, Grand Island, N.Y.) (CM). All cultures and assays are conducted at 37° C. under an atmosphere of 5% CO2 and 5% 02, with a balance of N2.
For drug sensitivity assays, tock drug solutions are prepared in 100% DMSO (dimethylsulfoxide) at 20 mM. The compound is further diluted to the appropriate concentration using complete medium RPM11640 supplemented with 15 nM cold hypoxanthine and AlbuMAXII. Assays are performed in sterile 96-well microtitre plates, each plate contains […] of parasite culture (0.5% parasitemia, 2.5% hematocrit). Each drug is tested in triplicate and parasite growth is compared to control and blank (uninfected erythrocytes) wells. After 24 h of incubation at 37° C., 3.7 Bq of [3H]hypoxanthine is added to each well. Cultures are incubated for a further 24 h before they are harvested onto glass-fiber filter mats. The radioactivity is counted using a Wallac Microbeta 1450 scintillation counter. […] The percentage inhibition is calculated from comparison of blank and control wells, and EC50 values are calculated using Prism™. Screen. The K1 line is used. The compound is diluted threefold over 12 different concentrations with an appropriate starting concentration. The EC50 is determined by a sigmoidal dose-response analysis using Prism™. For each assay, the EC50 value for the parasite line is determined against the known antimalarials chloroquine and artesunate, plus other standard compounds appropriate for the assay.
were tested in vitro against the intraerythrocytic form of the parasite Plasmodium falciparum K1 (chloroquine-resistant strain) and Plasmodium falciparum 31D7 (chloroquine-sensitive strain). The selectivity index (SI) was determined as the ration between EC50 against murine macrophages or HepG2 cells and the EC50 against P. falciparum.

[4] = tested on: P. berghei; experiment: Anti-malarial activity in vivo in mice inoculated with P. berghei; conditions: 50 mg/Kg oral, 3 consecutive days
[5] = tested on: P. falciparum 3D7 strain; experiment: Killing rates assay, P. falciparum 3D7 intraerythrocytic form; assay type: cell-based, Plasmodium falciparum
Experimental: The assay was performed in P. falciparum 3D7 strain in its intraerythrocytic form. […] Each compound was renewed (washing the parasites and adding culture media and the compound again) after the first 24 hours of treatment.

[6] = Plasma pharmacokinetics after single oral administration; assay type: in vivo, male Swiss Albino mice
Experimental: The objective of this study was to investigate the plasma pharmacokinetics of the compound CF-88 in male Swiss Albino mice following a single oral administration. Nine animals were used in this study as Group 1 (PO: 50 mg/kg). Animals were administered with solution formulation of CF-88 in 3% DMSO and RPMI medium via oral route at 50 mg/kg. The blood samples were collected from set of three mice at each time point in labeled micro centrifuge tube containing K2EDTA solution as anticoagulant at 0.25, 0.5, 1, 2, 4, 6, 8, 12 and 24 hr. Plasma samples were separated by centrifugation of whole blood and stored below −70±10° C. until bioanalysis. All samples were processed for analysis by protein precipitation using acetonitrile and analyzed with fit-for-purpose LC-MS/MS method (LLOQ=5.16 ng/mL). Pharmacokinetic parameters were calculated using the non-compartmental analysis tool of Phoenix WinNonlin® (Version 7.0).
For the preparation of the oral formulation accurately weighed 19.93 mg of compound for PO dosing was added in a labeled bottle. The volume 0.112 mL of DMSO was added and vortexed. The volume 3.617 mL of RPMI medium was added and vortexed. The final formulation (5 mg/mL) was vortexed for 2 minutes to get finely suspended formulation.
After preparation of formulations, a volume of 200 μL was aliquoted for analysis. […] Formulations were prepared freshly prior to dosing.
Blood samples (approximately 60 μL) were collected from retro-orbital plexus of three mice at 0.25, 0.5, 1, 2, 4, 6, 8, 12 and 24 hr. Samples were collected into labeled micro-tubes, containing K2EDTA solution (20% K2EDTA solution) as an anticoagulant. Plasma was immediately harvested from the blood by centrifugation at 4000 rpm for 10 min at 4±2° C. and stored below −70° C. until bioanalysis.

[7] = tested on: P. b. (liver st); experiment: Biological activity in vitro against the hepatic form of the parasite; assay type: cell-based, P. berghei
[8] = tested on: Plasmodium sp.; conditions: background statement, strain not stated; cited from earlier work
[9] = intraerythrocytic form, chloroquine-sensitive strain, read-out: EC50 P. f. 3D7
[10] = read-out: EC50 P. f. K1, intraerythrocytic form, chloroquine-resistant strain
[11] = Plasmodium falciparum, K1, read-out: EC50 P. f. K1
[12] = 0 hrs of treatment, compound at 10×EC50
[13] = 24 hrs of treatment, compound at 10×EC50 (CF89 500 nM, SP79 30 nM)
[14] = 48 hrs of treatment, compound renewed after 24 hrs, 10×EC50
[15] = male, Swiss Albino, mouse, in vivo, po, 50 mg/kg
[16] = male, Swiss Albino, mouse, plasma, PO 50 mg/kg, 12 hrs after administration, read-out: plasma concentration at 12 hrs

COC(=O)CC[C@@H]1NC(=O)CN(C)C(=O)[C@H](CSC(c2ccccc2)(c2ccccc2)c2ccccc2)NC(=O)CN(C)C(=O)[C@H](CSC(c2ccccc2)(c2ccccc2)c2ccccc2)NC(=O)CN(C)C1=O [CFfs49.5] (cyclo(C(Trt)[Sar]C(Trt)[Sar]E(OMe)[Sar]))
EC50 [1, 9]: 5.2 nM
SI [2]: >40000

CN1CC(=O)N[C@@H](CSC(c2ccccc2)(c2ccccc2)c2ccccc2)C(=O)N(C)CC(=O)N[C@@H](CSC(c2ccccc2)(c2ccccc2)c2ccccc2)C(=O)N(C)CC(=O)N[C@@H](CCC(=O)O)C1=O [CFfs49.4, Cycle-NMe-Gly-L-Cys(Trt)-NMe-Gly-L-Cys(Trt)-NMe-Gly-L-Glu] (cyclo(C(Trt)[Sar]C(Trt)[Sar]E[Sar]))
EC50 [3, 10]: 0.2 nM
EC50 [1, 9]: 12 nM
SI [2]: >20000
Days of survival [4]: 23 ± 4 days
Parasitemia ([4]; Day 5): 1.1 ± 0.2
Parasitemia ([4]; Day 7): 1.6 ± 0.2
Parasitemia (reduction %) ([4]; Day 7): (46 ± 6%)
Parasitemia ([4]; Day 9): 4.8 ± 0.5
Parasitemia (reduction %) ([4]; Day 9): (50 ± 4%)

CCN(CC)CCCC(C)Nc1ccnc2cc(Cl)ccc12 (stereo not drawn) [Chloroquine, reference compound]
EC50 [3, 11]: 470 nM
Survival % [5, 12]: 100%
Survival % [5, 13]: 14.13%
Survival % [5, 14]: 7.04%
Days of survival [4]: >30 days
Parasitemia (reduction %) ([4]; Day 5 (96 hrs after infection)): (100%)
Parasitemia ([4]; Day 5): 0
Parasitemia ([4]; Day 7): 0
Parasitemia (reduction %) ([4]; Day 7): (100%)
Parasitemia ([4]; Day 9): 0
Parasitemia (reduction %) ([4]; Day 9): (100%)

CCc1nc(N)nc(N)c1-c1ccc(Cl)cc1 [Pyrimethamine]
EC50 ([1]; Plasmodium falciparum, 3D7, intraerythrocytic form, chloroquine-sensitive strain, read-out: EC50 P. f. 3D7): 31 nM
Survival % [5, 12]: 100%
Survival % [5, 13]: 53.52%
Survival % [5, 14]: 9.59%

C[C@@H](OC(C)(C)C)[C@@H]1NC(=O)CNC(=O)[C@H](CSC(c2ccccc2)(c2ccccc2)c2ccccc2)NC(=O)CNC(=O)[C@H](CSC(c2ccccc2)(c2ccccc2)c2ccccc2)NC(=O)CN(C)C1=O [CF90, Cycle-L-Thr(^tBu)-NMe-Gly-L-Cys(Trt)-Gly-L-Cys(Trt)-Gly] (cyclo(C(Trt)GC(Trt)GT(tBu)[Sar]))
EC50 [3, 10]: 0.13 nM
EC50 [1, 9]: 1.4 nM
SI [2]: >1 × 10^5

CN1CC(=O)N[C@@H](CSC(c2ccccc2)(c2ccccc2)c2ccccc2)C(=O)N(C)CC(=O)N[C@@H](CSC(c2ccccc2)(c2ccccc2)c2ccccc2)C(=O)N(C)CC(=O)N[C@@H](COC(C)(C)C)C1=O [CF87, Cycle-NMe-Gly-L-Cys(Trt)-NMe-Gly-L-Ser(^t-Bu)-NMe-Gly-L-Cys(Trt)] (cyclo(C(Trt)[Sar]C(Trt)[Sar]S(tBu)[Sar]))
EC50 ([1]; 3D7 (chloroquine-sensitive strain)): 3.8 nM
SI [2]: > 12500

C[C@@H](OC(C)(C)C)[C@@H]1NC(=O)CN(C)C(=O)[C@H](CSC(c2ccccc2)(c2ccccc2)c2ccccc2)NC(=O)CNC(=O)[C@H](CSC(c2ccccc2)(c2ccccc2)c2ccccc2)NC(=O)CN(C)C1=O [CF88, Cycle-NMe-Gly-L-Thr(^t-Bu)-NMe-Gly-L-Cys(Trt)-Gly-L-Cys(Trt)] (cyclo(C(Trt)GC(Trt)[Sar]T(tBu)[Sar]))
EC90 ([3]; against P. falciparum K1): 1 nM
EC50 [3, 10]: 0.008 nM
EC50 [1, 9]: 0.25 nM
SI [2]: >1 × 10^6
Days of survival [4]: 25 ± 7 days
Parasitemia ([4]; Day 5): 0.9 ± 0.7
Parasitemia ([4]; Day 7): 1.7 ± 0.3
Parasitemia (reduction %) ([4]; Day 7): (46 ± 10%)
Parasitemia ([4]; Day 9): 6 ± 1
Parasitemia (reduction %) ([4]; Day 9): (33 ± 10%)
clinical signs after oral administration ([6]; PO 50 mg/kg single dose): all animals were normal without any clinical signs
t1/2 ([6]; PO 50 mg/kg, plasma, 4, 6, 8 and 12 hr time points considered (r^2 = 0.7325)): 4.93 h
detected in plasma up to ([6]; PO 50 mg/kg, time after administration): 12 h
detection in plasma at 24 hrs ([6]; PO 50 mg/kg, LLOQ 5.16 ng/mL): no detection
AUCinf [6, 15]: 390.71
AUClast [6, 15]: 314.79
Cmax [6, 15]: 61.13 ng/mL
tmax [6, 15]: 2 h
level at 12 h [6, 16]: 10.8 ng/mL
level at time molar at 12 h [6, 16]: 10 nM

C[C@@H](OC(C)(C)C)[C@@H]1NC(=O)CN(C)C(=O)[C@H](CSC(c2ccccc2)(c2ccccc2)c2ccccc2)NC(=O)CN(C)C(=O)[C@H](CSC(c2ccccc2)(c2ccccc2)c2ccccc2)NC(=O)CN(C)C1=O [SP79, Cycle-NMe-Gly-L-Thr(^t-Bu)-NMe-Gly-L-Cys(Trt)-NMe-Gly-L-Cys(Trt)] (cyclo(C(Trt)[Sar]C(Trt)[Sar]T(tBu)[Sar]))
EC50 [3, 10]: 0.7 nM
EC50 [1, 9]: 1 nM
SI [2]: >140000
EC50 [7]: 18.6 nM
Survival % [5, 12]: 100%
Survival % [5, 13]: 83.74%
Survival % [5, 14]: 57.48%

C[C@@H]1CC[C@H]2[C@@H](C)C(=O)O[C@@H]3O[C@@]4(C)CC[C@@H]1[C@]32OO4 [Artemisinine, reference compound]
EC50 [3, 11]: 20 nM
EC50 [8]: 20 nM

O=C1C(O)=C([C@H]2CC[C@H](c3ccc(Cl)cc3)CC2)C(=O)c2ccccc21 [Atovaquone]
Survival % [5, 12]: 100%
Survival % [5, 13]: 56.55%
Survival % [5, 14]: 32.02%

C[C@H]1[C@H](OC(=O)CCC(=O)O)O[C@@H]2O[C@@]3(C)CC[C@H]4[C@H](C)CC[C@@H]1[C@@]24OO3 [Artesunate]
EC50 [3, 11]: 3 nM
EC50 ([1]; Plasmodium falciparum, 3D7, read-out: EC50 P. f. 3D7): 5 nM
Survival % [5, 12]: 100%
Survival % [5, 13]: 10.01%
Survival % [5, 14]: 8.59%
EC50 [8]: 5 nM
